Experimental data from US12692232B2, “Indole carboxamide compound, preparation therefor and use thereof” (NANJING RUISHUNING MEDICAL TECHNOLOGY CO., LTD., priority 2021, dated 2026).

How the values were obtained:
TRPC6 channel = target: T1, TRPC6 channel (Homo sapiens, UniProt Q9Y210); assay: In vitro binding to TRPC6 protein by microscale thermophoresis (MST); parameters: fused on or other part: NT-647-NHS fluorescent dye label (chemical labelling for MST)
T1 sequence (Q9Y210 1-931): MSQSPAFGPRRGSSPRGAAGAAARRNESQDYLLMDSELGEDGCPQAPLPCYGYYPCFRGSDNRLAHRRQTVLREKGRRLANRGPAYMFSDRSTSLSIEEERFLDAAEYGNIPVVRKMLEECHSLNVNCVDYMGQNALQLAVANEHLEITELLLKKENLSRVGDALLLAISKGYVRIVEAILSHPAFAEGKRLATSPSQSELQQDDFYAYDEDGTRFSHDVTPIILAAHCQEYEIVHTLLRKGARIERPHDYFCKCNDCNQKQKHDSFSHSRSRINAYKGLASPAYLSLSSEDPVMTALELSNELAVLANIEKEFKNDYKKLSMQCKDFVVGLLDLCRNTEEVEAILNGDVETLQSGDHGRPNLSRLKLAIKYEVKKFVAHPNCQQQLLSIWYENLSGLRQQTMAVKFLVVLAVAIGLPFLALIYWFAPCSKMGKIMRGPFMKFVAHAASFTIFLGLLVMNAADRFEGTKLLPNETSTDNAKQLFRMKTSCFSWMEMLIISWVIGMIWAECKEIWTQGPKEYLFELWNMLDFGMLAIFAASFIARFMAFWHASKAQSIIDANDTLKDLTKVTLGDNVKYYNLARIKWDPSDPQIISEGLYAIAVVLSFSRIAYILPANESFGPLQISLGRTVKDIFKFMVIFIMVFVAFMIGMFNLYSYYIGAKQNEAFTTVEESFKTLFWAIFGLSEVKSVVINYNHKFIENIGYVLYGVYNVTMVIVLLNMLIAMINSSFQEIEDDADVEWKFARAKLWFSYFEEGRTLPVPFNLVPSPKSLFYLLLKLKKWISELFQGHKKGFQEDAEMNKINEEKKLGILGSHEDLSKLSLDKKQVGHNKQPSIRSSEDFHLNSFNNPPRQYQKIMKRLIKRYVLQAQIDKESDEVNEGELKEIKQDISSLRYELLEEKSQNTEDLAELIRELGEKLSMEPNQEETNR
Protocol: The binding ability of the compounds of the present invention (as exemplified by the compounds obtained in Examples 1 to 3) to the TRPC6 protein was determined using the microscale thermophoresis (MST) method. The method was as follows:
(§1) Preparation and labelling of protein solution: TRPC6 protein dry powder (Alomone Labs, Israel) was prepared into a protein mother solution at a concentration of 10 μM using PBS-Buffer, and 35 μL of the protein stock solution was taken to the Buffer exchange A column, and centrifuged to obtain the Tris-removed protein. 34 μL Labelling Buffer was added to the Tris-removed protein according to the instructions of the Protein Fluorescent Labelling Kit (model L001). After mixing well, 3 μL of NT-647-NHS fluorescent dye was added and thus obtained mixture was incubated for 20 minutes. The protein-dye mixture was transferred to the purification B column, 300 μL of PBS-Buffer was added, and the target protein, i.e. fluorescent labelled protein TRPC6, was collected by centrifugation (with a final concentration of about 2 μM). 180 μL of target protein was mixed with 1620 μL of PBS-Buffer, and then 9 μl of Tween-20 were added thereto. Thus the resulting mixture was mixed and then centrifuged to obtain the target protein solution.
Preparation of compound solutions: the compounds were prepared separately with DMSO to storage solutions with a concentration of 10 μM. 10 μL of each storage solution was placed in a […] EP tube, 90 μL of PBS was added thereto and the resulting mixture was thoroughly mixed to prepare 100 μL of working solution at a concentration of 1 μM for later use. Ligand gradient dilutions were made for a total of 16 concentrations, and 10 μL of 10% DMSO-Buffer was added to each of the 15 gradients except gradient 1, followed by the addition of 10 μL of ligand working solution to gradients 1 and 2, respectively. The liquid in tube 2 was mixed and then 10 μL therein was taken into tube 3, and dilution was carried out in this manner until tube 16. […]

TRPC1 protein = TRPC1 protein (Homo sapiens, UniProt P48995); assay: MST binding to TRPC1 protein; details: for Kd: MST; for affinity strength to TRPC6 protein higher than to TRPC1 protein: MST Kd ratio
Protocol: as §1
(§2) Preparation of compound solutions: the compounds were prepared separately with DMSO to storage solutions with a concentration of […]. 10 μL of each storage solution was placed in a […] EP tube, 90 μL of PBS was added thereto and the resulting mixture was thoroughly mixed to prepare 100 μL of working solution at a concentration of 1 μM for later use. Ligand gradient dilutions were made for a total of 16 concentrations, and 10 μL of 10% DMSO-Buffer was added to each of the 15 gradients except gradient 1, followed by the addition of 10 μL of ligand working solution to gradients 1 and 2, respectively. The liquid in tube 2 was mixed and then 10 μL therein was taken into tube 3, and dilution was carried out in this manner until tube 16. Tube 16 was mixed and 10 μL therein was taken and discarded, and the remainder was kept for later use.
(§3) Detection and analysis: 10 μL of protein solution was added to the 16 compound gradient dilutions respectively and mixed, and the resultant mixtures were transferred to capillary tubes sequentially to start detection on machine. After loading the data, the MST analysis model and Kd Model were selected to obtain the fitting curve and dissociation constant (Kd).
(§4) The binding ability of the compounds of the present invention (as exemplified by the compounds 1-1 and 2-1 obtained in Examples 1 and 3) for other TRPC proteins (e.g., TRPC1, TRPC3, TRPC4, TRPC5, and TRPC7) was determined using the microscale thermophoresis (MST) method. The method was as follows:
(§5) The affinity of the compounds of the present invention with TRPC1, TRPC3, TRPC4, TRPC5 and TRPC7 proteins, respectively, was determined by the same method as in Example 5.

TRPC7 protein = target: T2, TRPC7 protein (Homo sapiens, UniProt Q9HCX4); assay: MST binding to TRPC7 protein; details: for Kd: MST; for affinity strength to TRPC6 protein higher than to TRPC7 protein: MST Kd ratio
T2 sequence (Q9HCX4 1-862): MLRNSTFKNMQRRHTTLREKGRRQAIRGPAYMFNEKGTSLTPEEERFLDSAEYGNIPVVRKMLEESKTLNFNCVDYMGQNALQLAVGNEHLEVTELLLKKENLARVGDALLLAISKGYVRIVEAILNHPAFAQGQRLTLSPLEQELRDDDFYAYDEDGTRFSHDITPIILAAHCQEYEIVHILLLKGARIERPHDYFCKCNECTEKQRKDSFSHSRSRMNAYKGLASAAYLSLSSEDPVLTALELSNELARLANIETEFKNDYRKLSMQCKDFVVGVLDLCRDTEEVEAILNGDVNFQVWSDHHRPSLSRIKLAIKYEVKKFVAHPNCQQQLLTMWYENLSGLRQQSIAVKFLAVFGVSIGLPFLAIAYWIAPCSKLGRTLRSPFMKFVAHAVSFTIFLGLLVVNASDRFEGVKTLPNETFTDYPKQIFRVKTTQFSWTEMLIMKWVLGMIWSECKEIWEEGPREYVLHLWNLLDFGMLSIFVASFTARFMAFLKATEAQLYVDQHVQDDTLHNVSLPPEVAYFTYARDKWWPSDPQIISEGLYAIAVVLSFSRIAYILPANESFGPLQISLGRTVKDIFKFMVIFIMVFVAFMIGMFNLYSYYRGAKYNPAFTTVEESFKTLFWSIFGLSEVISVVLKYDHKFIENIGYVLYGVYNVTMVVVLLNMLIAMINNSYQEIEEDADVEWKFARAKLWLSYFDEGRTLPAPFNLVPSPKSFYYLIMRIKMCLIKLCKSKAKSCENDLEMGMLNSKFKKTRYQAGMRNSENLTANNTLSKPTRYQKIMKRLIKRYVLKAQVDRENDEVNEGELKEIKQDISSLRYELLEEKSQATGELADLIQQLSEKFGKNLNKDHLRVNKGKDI
Protocol: as §1, §2, §3, §4, §5

Chain of TRPC1 protein (P48995 whole entry, species assumed): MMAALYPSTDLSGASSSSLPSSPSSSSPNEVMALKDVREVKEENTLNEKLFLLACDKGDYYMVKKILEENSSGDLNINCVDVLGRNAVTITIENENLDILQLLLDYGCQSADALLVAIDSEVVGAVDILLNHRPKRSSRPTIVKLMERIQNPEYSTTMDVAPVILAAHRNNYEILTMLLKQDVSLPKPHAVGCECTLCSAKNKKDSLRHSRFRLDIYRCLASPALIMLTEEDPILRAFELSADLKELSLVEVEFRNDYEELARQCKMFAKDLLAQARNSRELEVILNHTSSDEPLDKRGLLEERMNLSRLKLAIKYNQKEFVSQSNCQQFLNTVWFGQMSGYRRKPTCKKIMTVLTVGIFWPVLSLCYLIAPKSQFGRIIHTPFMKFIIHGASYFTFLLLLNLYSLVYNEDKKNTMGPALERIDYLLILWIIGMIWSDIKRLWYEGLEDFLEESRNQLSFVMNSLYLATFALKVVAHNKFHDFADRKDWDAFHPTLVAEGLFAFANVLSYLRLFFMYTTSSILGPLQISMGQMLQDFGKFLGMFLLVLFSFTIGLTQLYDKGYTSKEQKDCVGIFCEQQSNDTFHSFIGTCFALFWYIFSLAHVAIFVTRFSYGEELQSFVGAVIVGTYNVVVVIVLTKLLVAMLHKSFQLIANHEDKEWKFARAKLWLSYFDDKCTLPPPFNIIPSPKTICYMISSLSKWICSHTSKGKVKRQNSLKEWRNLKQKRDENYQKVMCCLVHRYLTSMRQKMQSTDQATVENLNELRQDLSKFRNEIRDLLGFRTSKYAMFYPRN

SMILES | Kd (TRPC6 channel) | Kd (TRPC1 protein) | affinity strength to TRPC6 protein higher than to TRPC1 protein (TRPC1 protein) | Kd (TRPC7 protein) | affinity strength to TRPC6 protein higher than to TRPC7 protein (TRPC7 protein)
Cn1c(C(=O)NCCC(=O)O)cc2ccccc21 [3-[(1-methyl-1H-indole-2-carbonyl)amino]propionic acid, reference compound] | 29.78 ± 0.26 µM | 1.94 µM | 65 fold | 1.04 µM | 35 fold
CC(=O)OCCCNC(=O)c1c(C=O)c2ccccc2n1C [compound 1-1, propyl 3-[(3-formyl-1-methyl-1H-indole-2-carbonyl)amino]acetate] | 12 ± 3.61 µM | 2.94 µM | 245 fold | 3.04 µM | 254 fold
Cn1c(C(=O)NCCCOC(=O)c2ccccc2)c(C=O)c2ccccc21 [compound 2-1] | 19 ± 3.15 µM | 2.4 µM | 155 fold | 3.21 µM | 160 fold
